1 compound from patent publication US20040001859A1, “Anti-aging dietary supplements” (priority 2002, published 2004) can be followed below.

In the assay the test system is MDA (lipid peroxidation) in blood. The assay can be described thus: MDA rat model assay (blood MDA, aged rats). The format is in vivo, wistar rats. How it is done: A total of forty 3.5 year old wistar rats were divided into four groups, each containing 10 rats. Groups A, B, C and VE were treated with the activated yeast composition, the control yeast composition, saline and Vitamin E, respectively. Eight 8 month old wistar rats were also selected for group D, which were used as a junior control group.
Groups A, B and VE were administered daily 3 ml/kg (body weight) of the activated yeast composition, 3 ml/kg of the control yeast composition and 0.25 mg/kg of Vitamin E, respectively. Groups C and D were both treated with 3 ml/kg of saline daily. After three months of treatment, blood samples were taken from the heart of the rats and placed in a test tube with heparin. The test tube was then incubated at 37° C. for 10 minutes and centrifuged at 2500 rpm for 10 minutes. 4 ml of sulfuric acid and 0.5 ml of phosphotungstic acid were added to the serum and left at room temperature for 5 minutes after mixing. The mixture was then centrifuged at 3000 rpm for 10 minutes. 2 ml of sulfuric acid and 0.3 ml of phosphotungstic acid were added to the precipitate. Finally, the mixture was used to determine the MDA concentration as described previously.

Consider `Cc1c(C)c2c(c(C)c1O)CC[C@@](C)(CCC[C@H](C)CCC[C@H](C)CCCC(C)C)O2` [VE, Vitamin E], for which, where the note is “3.5 year old rats, blood from heart after three months of daily treatment, yeast compositions 3 ml/kg, Vitamin E 0.25 mg/kg”, the “MDA” value amounted to 4.36 ± 0.78 µM. Further, the “lipid peroxidation compared to control yeast composition or saline” value (aged rats, three months, in words) is “reduced lipid peroxidation”.
